Entries after “also recorded” stand apart in the source; their conditions may differ. Like-named read-outs stand apart in the source and are kept apart here.
How the values were obtained:
[1] = system: T. brucei brucei Lister 427; assay: Potency assessment against T. brucei brucei Lister 427 bloodstream form (AlamarBlue, 72 h); type: cell-based, Trypanosoma brucei brucei
human cells = conditions: literature, Table 1; read-out: Inhibition of Cell Growth EC50; cited from earlier work
L. major promastigotes [2] = assay: Potency assessment against Leishmania major promastigotes (growth, cell counting); type: cell-based; conditions: promastigotes, average of three replicates; read-out: Effective concentration (EC50) L. major
[3] = system: L. donovani axenic amastigotes; assay: Potency assessment against Leishmania donovani axenic amastigotes (growth, cell counting); type: cell-based; conditions: axenic amastigotes, average of three replicates; read-out: Effective concentration (EC50) L. donovani axenic amastigotes
Leishmania [4] = assay: Leishmania growth inhibition summarised across both species and stages; type: cell-based; conditions: range over L. major and L. donovani, promastigotes and amastigotes; read-out: inhibition of Leishmania across both species and stages
[5] = system: L. donovani promastigotes; assay: Potency assessment against Leishmania donovani promastigotes (growth, cell counting); type: cell-based; conditions: promastigotes, average of three replicates; read-out: Effective concentration (EC50) L. donovani promastigotes
T. b. brucei Lister 927 = assay: Potency assessment against T. b. brucei Lister 927; type: cell-based, Trypanosoma brucei brucei; conditions: Table 3
Procedure: Assays were performed using the strain of T. brucei brucei Lister 427 adapted to the laboratory, and the human-infective strain T. b. rhodesiense (EATRO3 ETat1.2 TREU164 [37]). Both strains were grown and tested as bloodstream forms. To establish the EC50, cultures of Trypanosoma brucei and T. b. rhodesiense were treated with two-fold increasing concentrations of compounds (with similar DMSO increasing concentration as control). Cell populations were measured at 72 hours with an Infinite F200 microplate reader (Tecan Austria GmbH, Austria); the determination of cell viability was carried out by the established colorimetric technique AlamarBlue® with modifications, a 96-well plate format spectrophotometric assay which measures the ability of living cells to reduce resazurin [38,39]. Data obtained with T. b. brucei Lister 427 were confirmed by manual counting in a Neubauer chamber for a direct microscopic examination to rule out multinucleated phenotypes that could mask the colorimetric assays, as well as the subtraction of solvent background to dismiss a potential solvent-derived fluorescence. Pentamidine was used as drug control for potency comparison, and T. b. brucei Lister 927 strain was included in our experiments to evaluate the adaptation to medium for the different strains as a variable condition.

[6] = system: T. brucei brucei Lister 427 bloodstream cells; assay: Morphological and cell cycle alterations in T. brucei (flow cytometry); type: cell-based, Trypanosoma brucei brucei
Procedure: Flow cytometry was used to assess cell size and DNA content, to reveal a G1 arrest and inhibition of protein synthesis or G2 arrest and multinucleated cells. […]. After permeabilization with […], saponin (0.5 mg/mL final concentration), the culture was RNAse treated for 30 minutes (10 μg/mL final concentration) and stained with 20 μg/mL propidium iodide immediately before its acquisition in a FACscan cytometer. Cells incubated with equivalent concentration of drug solvent (DMSO) were included in each experiment as control population.

T. b. rhodesiense = assay: Potency assessment against T. b. rhodesiense EATRO3 bloodstream form (AlamarBlue, 72 h); type: cell-based, Trypanosoma brucei rhodesiense
L. major = assay: Mouse model of L. major infection (bioluminescent imaging); type: in vivo, Balb/c mice
Procedure: (§1) The targeted dosage of inhibitors was determined based on the pharmacokinetic studies disclosed by Maira, et al.. […] For L. major, 12.5 mg/kg orally was the highest tolerable dose while 30 mg/kg intraperitoneally was used for the T. cruzi infections. A lower dose was initially used in T. brucei, 5 or 10 mg/kg intraperitoneally.
Mouse experiments were done in compliance with policies approved by the Animal Review Board at Washington University. Mice were infected with luciferase expressing L. major (LmFV1LucTK-1) and analyzed by bioluminescent imaging as described. Balb/c mice were infected with 10^5 L. major metacyclic stage parasites purified by gradient centrifugation. Luminescence was measured using an IVIS 100 instrument and analyzed with Living Image software version 2.60.

T. b. rhodesiense EATRO3 = assay: Acute mouse infection model of T. b. rhodesiense; type: in vivo, Balb/c mice; conditions: for mean survival day (MSD): once per day for four days, untreated died 6th day
L. major promastigotes [7] = assay: Cell size and DNA content analysis in Leishmania (flow cytometry); type: cell-based, Leishmania major
Procedure: L. major log phase promastigotes were inoculated at a concentration of 10^6 cells/ml into media with compounds as indicated, and incubated overnight with varying drug concentrations to assess cell size and DNA content. For cell size, forward scatter of live promastigotes was measured by a FACS flow cytometer (Becton Dickinson), utilizing dye exclusion with 5 μg/ml propidium iodide (PI) to gate for live cells. DNA content was determined by flow cytometry using fixed and permeabilized L. major stained with PI as previously described, but reducing the incubation time with PI and RNase A from 1 hour to 30 minutes. Histogram analysis was performed using CellQuest 3.1 software (BD Bioscience).

[8] = system: T. brucei gambiense, ELIANE strain; assay: Potency assessment against T. b. gambiense ELIANE bloodstream form; type: cell-based, Trypanosoma brucei gambiense
T. cruzi trypomastigotes = assay: T. cruzi intracellular replication in NIH/3T3 host cells (β-galactosidase, CPRG); type: cell-based, Trypanosoma cruzi
[9] = system: free T. cruzi trypomastigotes; assay: T. cruzi extracellular survival of free trypomastigotes (24 h, CPRG); type: cell-based, Trypanosoma cruzi
Procedure: T. cruzi trypomastigotes from the Tulahuen strain stably expressing the β-galactosidase gene were obtained from the supernatant of infected cultures of LLC-MK2 cells harvested between days 5 and 7. To remove amastigotes, trypomastigotes were allowed to swim out of the pellet of samples that had been centrifuged for 7 min at 2500 rpm.
Free trypomastigotes were rinsed once and placed in 96-well plates at 100,000/well with the compounds in a final volume of 200 μl of DMEM without phenol red supplemented with 2% FBS, Pen-Strep-Glut and 100 μM CPRG. Plates were incubated for 24 h at 37° C. and absorbance was read at 590 nm.

T. cruzi Y strain = assay: Mouse model of T. cruzi infection (luciferase imaging); type: in vivo, Balb/c mice; conditions: 30 mg/kg, 5 days, intraperitoneal
Procedure: as §1
Balb/c mice were inoculated intraperitoneally with 10^5 trypomastigotes from T. cruzi Y strain expressing firefly luciferase (kindly provided by Dr. Barbara Burleigh, Harvard University). On day 7 post-infection, mice were anesthetized with ketamine/xylazine and injected with 3 mg of D-Luciferin Potassium Salt (Gold Biotechnology) at 20 mg/ml in PBS and imaged in the IVIS Lumina II (Caliper Life Sciences). […] Mice were treated for 5 days and imaged again on day 13. Data is expressed as the ratio between luciferase units in day 13 versus day 7 to determine the progression of infection with and without drug treatment.

Leishmania [10] = conditions: methods similar to those described here; cited from earlier work

Question: For NVP-BEZ235, which “potency against BSF T. brucei brucei in words” value ([1]; Lister 427) is on record?
Answer: nanomolar potency

Question: What about the EC50 ([1]; Table 3, read-out: EC50 T. b. brucei 427) of the same compound?
Answer: 16.3 ± 4.7 nM

Question: What about the EC50 ([1]; bloodstream form, cell printed in nM, read-out: Effective concentration (EC50) T. b. brucei) of the same compound?
Answer: < 10 nM

Question: And the EC50 (human cells)?
Answer: 50 nM

Question: And the EC50 (L. major promastigotes [2])?
Answer: 110 ± 50 nM

Question: What about the EC50 [3] of the same compound?
Answer: 70 ± 40 nM

Question: And the EC50 (Leishmania [4])?
Answer: 70 to 140 nM

Question: And the EC50 [5]?
Answer: 140 ± 80 nM

Question: And the EC50 (T. b. brucei Lister 927)?
Answer: 1.7 ± 0.5 nM

Question: And the “effect on cellular DNA content / cell cycle, T. b. brucei” value [6]?
Answer: appearance of zoids (anucleated cells) [59] and multinucleated cells; also recorded: reduction of G1 and G2 cells

Question: What about the EC50 (T. b. rhodesiense; Table 3, read-out: EC50 T. b. rhodesiense EATRO3) of the same compound?
Answer: 0.73 ± 0.06 nM

Question: And the EC50 (T. b. rhodesiense; bloodstream form, cell printed in nM, read-out: Effective concentration (EC50) T. b. rhodesiense)?
Answer: 0.73 ± 0.06 nM

Question: What about the EC50 (T. b. rhodesiense; read-out: activity against EATRO3 strain of T. b. rhodesiense) of the same compound?
Answer: 0.73 nM

Question: And the “body weight of drug-treated mice” value (L. major; 12.5 mg/kg/day oral gavage, L. major infected mice)?
Answer: significant weight loss; also recorded: severe weight loss

Question: What about the “efficacy against L. major infection” value (L. major; 12.5 mg/kg/day, 10 days, oral gavage) of the same compound?
Answer: no efficacy; also recorded: no therapeutic effect

Question: What about the “lethality at higher doses” value (L. major; dosing intraperitoneally at 25 mg/kg/day (higher drug doses)) of the same compound?
Answer: lethal

Question: And the highest tolerable dose (L. major; orally, L. major mouse model)?
Answer: 12.5 mg/kg

Question: And the “mean survival day (MSD)” value (T. b. rhodesiense EATRO3; 5 mg/kg intraperitoneal)?
Answer: 10.8 (±2.4) days

Question: What about the “mean survival day (MSD)” value (T. b. rhodesiense EATRO3; 10 mg/kg intraperitoneal) of the same compound?
Answer: 13.4 (±3.3) days

Question: What about the parasites eliminated (T. b. rhodesiense EATRO3; 10 mg/kg, for four days) of the same compound?
Answer: 80%

Question: What about the parasitemia (T. b. rhodesiense EATRO3; 5 or 10 mg/kg intraperitoneal, within two days, detection limit) of the same compound?
Answer: < 10^4 parasites/mL

Question: What about the “effect on cell size and DNA content, L. major promastigotes” value (L. major promastigotes [7]) of the same compound?
Answer: G2 growth arrest and increased promastigote size

Question: And the EC50 ([8]; Table 3, read-out: EC50 T. b. gambiense ELIANE)?
Answer: 0.18 ± 0.2 nM

Question: And the EC50 ([8]; read-out: EC50 against BSF T. brucei gambiense ELIANE)?
Answer: 0.179 nM

Question: And the “amastigote lysis within host cells” value (T. cruzi trypomastigotes; 350 nM, after three days, NIH-3T3 host cells)?
Answer: amastigotes lysis within host cells was observed

Question: And the EC50 (T. cruzi trypomastigotes; read-out: EC50 T. cruzi infection of host cell fibroblasts)?
Answer: 120 nM

Question: What about the “activity against free, non-replicating T. cruzi trypomastigotes in words” value [9] of the same compound?
Answer: inactive

Question: And the EC50 ([9]; non-replicating, outside host cells, read-out: EC50 against free trypomastigotes)?
Answer: > 50000 nM

Question: And the “efficacy against T. cruzi infection” value (T. cruzi Y strain)?
Answer: no efficacy

Question: Which “potency of anti-leishmanial agent” value (Leishmania [10]) does the source give for C[C@@H]1[C@H](O)[C@@H](C)/C=C/C=C/C=C/C=C/C=C/C=C/C=C/[C@H](O[C@@H]2O[C@H](C)[C@@H](O)[C@H](N)[C@@H]2O)C[C@@H]2O[C@](O)(C[C@@H](O)C[C@@H](O)[C@H](O)CC[C@@H](O)C[C@@H](O)CC(=O)O[C@H]1C)C[C@H](O)[C@H]2C(=O)O [amphotericin B] here?
Answer: 30 nM
